As usually defined, the EC50 is the concentration that produces a half-maximal response.

The values that follow come from publication PMC12567398, “New Assay Systems to Characterize the Broad-Spectrum Antiherpesviral and Non-Herpesviral Activity of Cyclin-Dependent Kinase (CDK) 8 Inhibitors” (Pharmaceuticals, 2025).

The subject of data set [1] is VZV. The arrangement: method as in ref 35, 38 (a number printed in a supplementary file, which may have a reference list of its own: not looked up in the article's list). The following applies: Table S1; read-out: antiviral EC50, VZV; cited from earlier work.
Data set [2] deals with HCMV TB40-YFP. In words: HCMV time-of-addition reporter assay in HFFs, TB40-YFP. Background: Reporter assays use an easily measured gene product as a stand-in for the process of interest.
In data set [3] the target is MHV-68-Luc. Kind of data set: MHV-68-Luc luciferase reporter assay. It counts as cell-based, murine herpesvirus 68.
Data set [4] relates to HSV-1. The arrangement: method as in ref 35, 38 (a number printed in a supplementary file, which may have a reference list of its own: not looked up in the article's list). The following applies: Table S1; read-out: antiviral EC50, HSV-1; cited from earlier work.
Data set [5] has as its system vaccinia virus VV IHD-5. In words: microbe, parasite or virus in culture. The class given is cell-based. The conditions noted are these: read-out: antiviral EC50, VV.
The test system of data set [6] is RhCMV. The arrangement: method as in ref 35, 38 (a number printed in a supplementary file, which may have a reference list of its own: not looked up in the article's list). The conditions noted are these: Table S1; read-out: antiviral EC50, RhCMV; cited from earlier work.
Data set [7] deals with HCMV Merlin-GFP. Kind of data set: HCMV time-of-addition reporter assay in HFFs, Merlin-GFP.
Data set [8] relates to EHV-1-GFP. Kind of data set: EHV-1-GFP antiviral assay, GFP fluorometry. The class given is cell-based, equine herpesvirus 1.
Data set [9] deals with HAdV. More on the design: method as in ref 35, 38 (a number printed in a supplementary file, which may have a reference list of its own: not looked up in the article's list). The following applies: Table S1; read-out: antiviral EC50, HAdV; cited from earlier work.
Data set [10] concerns Vero cells.
Data set [11] concerns HHV-6A-GFP. In words: HHV-6A plaque reduction assay in HFFs.
The test system of data set [12] is JCPyV. More on the design: method as in ref 35, 38 (a number printed in a supplementary file, which may have a reference list of its own: not looked up in the article's list). The following applies: Table S1; read-out: antiviral EC50, JCPyV; cited from earlier work.
Data set [13] deals with RCMV. The arrangement: method as in ref 35, 38 (a number printed in a supplementary file, which may have a reference list of its own: not looked up in the article's list). The following applies: Table S1; read-out: antiviral EC50, RCMV; cited from earlier work.
For data set [14], the system named is HCMV AD169-GFP. In words: HCMV time-of-addition reporter assay in HFFs, AD169-GFP.
Data set [15] has as its system SARS-CoV-2 d6-YFP.
Data set [16] deals with Epstein–Barr virus P3HR-1. In words: EBV lytic assay in TPA-induced P3HR-1 cells, qPCR. The class given is cell-based. On the technique in general: Real-time PCR tracks product formation cycle by cycle.
In data set [17] the test system is HCMV. The arrangement: method as in ref 35, 38 (a number printed in a supplementary file, which may have a reference list of its own: not looked up in the article's list). The conditions noted are these: Table S1; read-out: antiviral EC50, HCMV; cited from earlier work.
In data set [18] the test system is MEFs.
Data set [19] relates to KSHV. More on the design: method as in ref 35, 38 (a number printed in a supplementary file, which may have a reference list of its own: not looked up in the article's list). The following applies: Table S1; read-out: antiviral EC50, KSHV; cited from earlier work.
The subject of data set [20] is Caco-2 cells.
Data set [21] has as its system ChCMV. The arrangement: method as in ref 35, 38 (a number printed in a supplementary file, which may have a reference list of its own: not looked up in the article's list). The following applies: Table S1; read-out: antiviral EC50, ChCMV; cited from earlier work.
The subject of data set [22] is EHV-1. In words: EHV-1-specific qPCR of virus release into culture medium. The following applies: EHV-1; qPCR / HFF; read-out: EC50. The class given is cell-based, equine herpesvirus 1.
Data set [23] has as its system GPCMV. More on the design: method as in ref 35, 38 (a number printed in a supplementary file, which may have a reference list of its own: not looked up in the article's list). The following applies: Table S1; read-out: antiviral EC50, GPCMV; cited from earlier work.
In data set [24] the test system is 293T-tdTom-Luc cells.
For data set [25], the system named is MCMV. More on the design: method as in ref 35, 38 (a number printed in a supplementary file, which may have a reference list of its own: not looked up in the article's list). The conditions noted are these: Table S1; read-out: antiviral EC50, MCMV; cited from earlier work.
For data set [26], the system named is P3HR-1 cells.
For data set [27], the system named is HHV-6A. More on the design: method as in ref 35 (a number printed in a supplementary file, which may have a reference list of its own: not looked up in the article's list). The following applies: Table S1; J-Jhan cells; read-out: antiviral EC50, HHV-6A (J-Jhan); cited from earlier work.
A short description of data set [28]: in vitro. The conditions noted are these: mouse.
A short description of data set [29]: in vitro. The conditions noted are these: human.
Data set [30] in a line: in vitro. The conditions noted are these: African green monkey.
A short description of data set [31]: in vitro. The following applies: African green monkey. This is another data set of the same source.
A short description of data set [32]: Neutral Red uptake cell viability assay, P3HR-1. The following applies: human.

Where two headings read alike, the source gives them in different places.

As for `Cn1ncc2cc(-c3cnc(N)c(Cl)c3N3CCC4(CCNC4=O)CC3)ccc21` [CCT-251921], the EC50 in [1] is 28000 ± 9000 nM; in data set [2] (read-out: TB40-YFP EC50, drug addition 0 d p.i., readout 7 d p.i.), 8.7 ± 5 nM; in data set [2] (read-out: TB40-YFP EC50, drug addition 1 d p.i., readout 7 d p.i.) it was 26 ± 4 nM; in [2] (read-out: TB40-YFP EC50, drug addition 2 d p.i., readout 7 d p.i.), over 50 nM; in data set [2] (read-out: TB40-YFP EC50, drug addition 3 d p.i., readout 7 d p.i.) it was over 50 nM; in data set [2] (read-out: TB40-YFP EC50, drug addition 4 d p.i., readout 7 d p.i.) it was over 50 nM. Besides, the EC50 is 0.5 ± 0.9 nM in data set [3] (Table S1, COS-7, read-out: antiviral EC50, MHV-68 (COS-7)); 500 ± 300 nM in data set [3] (Table S1, HFF, read-out: antiviral EC50, MHV-68 (HFF)); 10 ± 9 nM in [3] (Table S1, MEF, read-out: antiviral EC50, MHV-68 (MEF)); 2 ± 1 nM in [3] (Table S1, Vero, read-out: antiviral EC50, MHV-68 (Vero)); over 50000 nM in data set [4]; over 50000 nM in data set [5]. For the same molecule, the half-maximal effective concentration (EC50) in data set [6] was 3 ± 2 nM; in [7] (read-out: Merlin-GFP EC50, drug addition 0 d p.i., readout 7 d p.i.), 0.7 ± 1.3 nM; in [7] (read-out: Merlin-GFP EC50, drug addition 1 d p.i., readout 7 d p.i.), 13 ± 8 nM; in data set [7] (read-out: Merlin-GFP EC50, drug addition 2 d p.i., readout 7 d p.i.) it was 3.4 ± 6.8 nM; in data set [7] (read-out: Merlin-GFP EC50, drug addition 4 d p.i., readout 7 d p.i.) it was 5.9 ± 4.9 nM; in data set [8] (EHV-1, GFP / COS-7, read-out: EC50), 100 nM. For the same molecule, the EC50 in data set [9] is 30 ± 30 nM; in data set [11] (read-out: antiviral EC50, HHV-6A (HFF), Table S1, HFF), 40 ± 20 nM; in data set [12], 3700 ± 3000 nM; in [13], 20 ± 50 nM; in [14] (read-out: AD169-GFP EC50, drug addition 0 d p.i., readout 7 d p.i.), 0.7 ± 0.7 nM; in data set [14] (read-out: AD169-GFP EC50, drug addition 1 d p.i., readout 7 d p.i.), 3.2 ± 2.6 nM. In addition, the EC50 in data set [14] (read-out: AD169-GFP EC50, drug addition 2 d p.i., readout 7 d p.i.) was 8.3 ± 7.9 nM; in data set [14] (read-out: AD169-GFP EC50, drug addition 3 d p.i., readout 7 d p.i.), over 50 nM; in data set [14] (read-out: AD169-GFP EC50, drug addition 4 d p.i., readout 7 d p.i.), over 50 nM; in data set [15] (read-out: Antiviral mean EC50 based on YFP measurements, SARS-CoV-2 d6-YFP, Caco-2, […]) it was at least 15400 nM; in [15] (read-out: antiviral EC50, SARS-CoV-2, Table S1) it was 62400 ± 18500 nM; in data set [16] (Table S1, read-out: antiviral EC50, EBV), 2500 ± 1000 nM. Besides, the EC50 was 4 ± 2 nM in data set [17]; 300 nM in [19]; 30 ± 20 nM in data set [21]; 800 nM in [22]; 50 ± 80 nM in data set [23]; over 40 nM in data set [25]. For the same molecule, the EC50 in data set [27] was 39000 ± 21000 nM. Moreover, the CC50 in data set [10] is over 100000 nM; in [18], over 100000 nM; in data set [20] it was over 100000 nM; in data set [24], 95300 ± 6600 nM; in data set [26] it was over 100000 nM. Further, the “CDK8 inhibitor sensitivity of SARS-CoV-2 in Caco-2 cells” value in data set [15] (in words) was “lack of CDK8 inhibitor sensitivity”.
As to `Nc1nc(O)c2ncn(COC(CO)CO)c2n1` [GCV, ganciclovir], the CC50 at 7 d in data set [28] and in data set [31] was over 100000 nM in each case. Moreover, the figures for the CC50 in data set [29] (CC50) and in [29] (mean CC50) were over 50000 nM and over 100000 nM, respectively. For the same molecule, the EC50 in [3] (Murine herpesvirus, MHV-68-Luc, HFF) was over 50000 nM; in data set [3] (Murine herpesvirus, MHV-68-Luc, MEF), 9400 ± 6300 nM; in data set [3] (Murine herpesvirus, Vero, MHV-68-Luc) it was 900 ± 700 nM; in data set [8], 1300 ± 300 nM; in data set [8] (COS-7) it was 200 ± 100 nM; in data set [8] (Equus caballus, Vero), 40 ± 50 nM. In addition, the EC50 in data set [11] (Human betaherpesvirus 6A, read-out: Antiviral mean EC50 based on plaque assay measurements) worked out at 2500 ± 600 nM. In [30], this molecule came in with a CC50 at 4 d of over 100000 nM.
`CC(C)OC(=O)[C@H](C)N[P@](=O)(CO[C@H](C)Cn1cnc2c(N)ncnc21)Oc1ccccc1` [TAF, tenofovir alafenamide] displayed a CC50 at 10 d in [32] of over 100000 nM. For the same molecule, the EC50 in [16] (human gammaherpesvirus 4, P3HR-1, 240 h, read-out: Antiviral mean EC50 based on qPCR measurements) turned out to be 1800 nM.
